Experimental data reported in ChEMBL document CHEMBL1649074, “Aurora kinase inhibitors based on the imidazo[1,2-a]pyrazine core: fluorine and deuterium incorporation improve oral absorption and exposure” (J Med Chem, 2011).

Columns and labels:
[1] = AUC (0 to 6 hrs) in rat at 10 mg/kg, po; format: ADME, organism-based; set-up: time < 6 hr, dose 10 mg/kg, route oral; details: plasma
Aurora kinase B [2] = target: T1, Aurora kinase B (Homo sapiens, UniProt Q96GD4); experiment: Inhibition of Aurora B
Aurora kinase A = target: T2, Aurora kinase A (Homo sapiens, UniProt O14965); experiment: Inhibition of Aurora A
T2 sequence (O14965 whole entry): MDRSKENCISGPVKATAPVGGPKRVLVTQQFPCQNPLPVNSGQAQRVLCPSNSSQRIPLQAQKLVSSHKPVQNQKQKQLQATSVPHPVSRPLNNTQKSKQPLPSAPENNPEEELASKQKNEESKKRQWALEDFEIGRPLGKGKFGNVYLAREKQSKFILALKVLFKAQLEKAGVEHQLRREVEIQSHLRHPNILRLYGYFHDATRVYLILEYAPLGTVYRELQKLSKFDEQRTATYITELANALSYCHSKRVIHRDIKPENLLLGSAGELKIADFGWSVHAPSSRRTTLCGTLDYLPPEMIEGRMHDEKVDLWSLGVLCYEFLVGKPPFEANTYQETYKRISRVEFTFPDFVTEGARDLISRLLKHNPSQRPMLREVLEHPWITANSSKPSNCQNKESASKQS

Aurora kinase B [3] = target: T1, Aurora kinase B; experiment: Inhibition of Aurora B in human HCT116 cells assessed as inhibition of histone H3 phosphorylation by immunofluorescence assay; format: cell-based, HCT-116
[4] = Plasma clearance in rat; format: ADME, organism-based
[5] = Oral bioavailability in Sprague-Dawley rat at 30 mg/kg; format: ADME, organism-based; details: in vivo
[6] = Oral bioavailability in cynomolgus monkey at 10 mg/kg; format: ADME, organism-based, Macaca fascicularis; details: in vivo
[7] = Oral bioavailability in CD1 mouse at 50 mg/kg; format: ADME, organism-based; details: in vivo
[8] = Oral bioavailability in Beagle dog at 10 mg/kg; format: ADME, organism-based, Canis lupus familiaris; details: beagle, in vivo
[9] = Oral AUC in Beagle dog at 10 mg/kg, po; format: ADME, organism-based, Canis lupus familiaris; set-up: dose 10 mg/kg, route oral; details: in vivo
[10] = Oral AUC in cynomolgus monkey at 10 mg/kg, po; format: ADME, organism-based, Macaca fascicularis; set-up: dose 10 mg/kg, route oral; details: in vivo
[11] = Oral AUC in Sprague-Dawley rat at 30 mg/kg, po; format: ADME, organism-based; set-up: dose 30 mg/kg, route oral; details: in vivo
[12] = AUC in CD1 mouse at 50 mg/kg, po; format: ADME, organism-based; set-up: dose 50 mg/kg, route oral; details: plasma

T1 sequence (Q96GD4 whole entry): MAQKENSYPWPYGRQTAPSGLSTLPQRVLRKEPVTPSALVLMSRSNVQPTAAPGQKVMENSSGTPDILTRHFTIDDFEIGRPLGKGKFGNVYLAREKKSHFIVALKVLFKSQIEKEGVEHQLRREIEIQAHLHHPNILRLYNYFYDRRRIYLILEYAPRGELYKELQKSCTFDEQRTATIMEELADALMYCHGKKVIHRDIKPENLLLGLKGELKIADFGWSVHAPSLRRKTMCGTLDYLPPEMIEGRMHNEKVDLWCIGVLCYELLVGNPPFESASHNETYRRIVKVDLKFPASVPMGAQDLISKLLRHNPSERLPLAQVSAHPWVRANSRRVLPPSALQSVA

Row | SMILES | AUC(0-t) at 6 h [1] [µM·h] | IC50 (Aurora kinase B [2]) [nM] | IC50 (Aurora kinase A) [nM] | IC50 (Aurora kinase B [3]) [nM] | clearance [4] [mL/min/kg] | bioavailability [5] [%] | bioavailability [6] [%] | bioavailability [7] [%] | bioavailability [8] [%] | AUC [9] [µM·h] | AUC [10] [µM·h] | AUC [11] [µM·h] | AUC [12] [µM·h]
1 | Cc1cn2c(-c3cn[nH]c3)cnc2c(Nc2cc(CN(CC(F)F)C(C)(C)CO)ns2)n1.Cl | 0.28 | ≤ 13 | ≤ 4 | 306 |  |  |  |  |  |  |  |  | 
2 | Cc1cn2c(-c3cn[nH]c3)cnc2c(Nc2cc(CN(CC(F)(F)F)C(C)(C)CO)ns2)n1.Cl | 0.86 | ≤ 13 | ≤ 4 | 198 |  |  |  |  |  |  |  |  | 
3 | Cc1cn2c(-c3cn[nH]c3)cnc2c(Nc2cc(CN3CCCCC3)ns2)n1.Cl | 0.21 | ≤ 13 | ≤ 4 | 45 | 80 |  |  |  |  |  |  |  | 
4 | Cc1cn2c(-c3cn[nH]c3)cnc2c(Nc2cc(CN3CCC(F)CC3)ns2)n1.Cl | 2.2 | ≤ 13 | ≤ 4 | 86 |  | 21 | 3 | 10 | 38 | 6.1 | 0.4 | 8 | 1.2
5 | Cc1cn2c(-c3cn[nH]c3)cnc2c(Nc2cc(CN3CCCC(F)C3)ns2)n1.Cl (stereo not given) | 1.21 | ≤ 13 | ≤ 4 | 193 |  |  |  |  |  |  |  |  | 
6 | Cc1cn2c(-c3cn[nH]c3)cnc2c(Nc2cc(CN3CCC(C(F)(F)F)CC3)ns2)n1.Cl | 1.34 | ≤ 13 | ≤ 4 | 218 |  |  |  |  |  |  |  |  | 
7 | Cc1cn2c(-c3cn[nH]c3)cnc2c(Nc2cc(CN3CCCC3)ns2)n1 |  | ≤ 13 | ≤ 4 | 88 |  |  |  |  |  |  |  |  | 
8 | Cc1cn2c(-c3cn[nH]c3)cnc2c(Nc2cc(CN3CC(F)C3)ns2)n1.O=C(O)C(F)(F)F | 0.18 | ≤ 13 | ≤ 4 | 191 |  |  |  |  |  |  |  |  | 
9 | Cc1cn2c(-c3cn[nH]c3)cnc2c(Nc2cc(CNCCC(F)(F)F)ns2)n1.Cl | 10.9 | ≤ 13 | ≤ 4 | 63 | 12 | 22 |  |  |  | 0.3 | 0.03 | 20.5 | 11.1
10 | Cc1cn2c(-c3cn[nH]c3)cnc2c(Nc2cc(CNCC(F)(F)C(F)(F)F)ns2)n1.Cl | 3.42 | ≤ 13 | ≤ 4 | 51 |  |  |  |  |  |  |  |  | 
11 | Cl.[2H]C([2H])(c1cc(Nc2nc(C)cn3c(-c4cn[nH]c4)cnc23)sn1)N1CCCCC1 |  |  |  |  | 35 |  |  |  |  |  |  |  | 
12 | Cl.[2H]C([2H])(NCCC(F)(F)F)c1cc(Nc2nc(C)cn3c(-c4cn[nH]c4)cnc23)sn1 |  |  |  |  | 5.1 |  |  |  |  |  |  |  | 

Next, values leading:

Row | AUC(0-t) at 6 h [1] [µM·h] | IC50 (Aurora kinase B [2]) [nM] | IC50 (Aurora kinase A) [nM] | IC50 (Aurora kinase B [3]) [nM] | clearance [4] [mL/min/kg] | bioavailability [5] [%] | bioavailability [6] [%] | bioavailability [7] [%] | bioavailability [8] [%] | AUC [9] [µM·h] | AUC [10] [µM·h] | AUC [11] [µM·h] | AUC [12] [µM·h] | SMILES
13 | 0.95 | ≤ 13 | ≤ 4 | 74 |  |  |  |  |  |  |  |  |  | Cc1cn2c(-c3cn[nH]c3)cnc2c(Nc2cc(CN3CCC(F)(F)CC3)ns2)n1.Cl
14 | 1.56 | ≤ 13 | ≤ 4 | 79 |  |  |  |  |  |  |  |  |  | Cc1cn2c(-c3cn[nH]c3)cnc2c(Nc2cc(CN3CCCC(F)(F)C3)ns2)n1.Cl
15 | 0.76 | ≤ 13 | ≤ 4 | 93 |  |  |  |  |  |  |  |  |  | Cc1cn2c(-c3cn[nH]c3)cnc2c(Nc2cc(CN3CC[C@H](F)C3)ns2)n1.Cl
16 | 0.74 | ≤ 13 | ≤ 4 | 82 |  |  |  |  |  |  |  |  |  | Cc1cn2c(-c3cn[nH]c3)cnc2c(Nc2cc(CN3CC[C@@H](F)C3)ns2)n1.Cl
17 | 0.11 | ≤ 13 | ≤ 4 | 50 |  |  |  |  |  |  |  |  |  | Cc1cn2c(-c3cn[nH]c3)cnc2c(Nc2cc(CN3CC(F)(F)C(F)(F)C3)ns2)n1.Cl
18 | 12.1 | ≤ 13 | ≤ 4 | 76 |  | 12 |  |  |  | 3.8 | 0.1 | 7.1 | 7.1 | Cc1cn2c(-c3cn[nH]c3)cnc2c(Nc2cc(CN3CC(F)(F)C3)ns2)n1.O=C(O)C(F)(F)F
